≈ marks a conversion by molar mass, not a printed value.
Columns and labels:
Rhizopus (Ceylon) [1] = assay: MIC determination (NCCLS broth method); format: cell-based; details: read-out: Minimum Inhibitory Concentration (MIC)
Source text: (§1) The in-vitro evaluation of the antifungal activity of the compounds can be performed by determining the minimum inhibitory concentration (MIC) as shown in Table 1 which is the concentration of the test compound in Rosewell Park Memorial Institute (RPMI) 1640 liquid medium buffered with 3-(Morpholino)propanesulphonic acid (MOPS) to pH 7, at which there is significant inhibition of the particular fungi. In practice the National Committee for Clinical Laboratory Standard (NCCLS) M27A document for Candida and Cryptococcus and M38P for Aspergillus was used to determine the MIC against yeast and filamentous fungi with suitable modifications for dermatophytes to other filamentous fungi. Three quality control strains were included each time the MIC were determined and readings recorded only when the Quality Control results fell into the acceptable range. After MIC results had been recorded, 100 μl from each of the well showing no growth was spread over Sabouraud Dextrose Agar (SDA) to determine the minimum fungicidal concentration (MFC) as shown in Table 2.

C krusei 766.1 = assay: MIC determination (NCCLS broth method); format: cell-based; details: read-out: Minimum Inhibitory Concentration (MIC)
Source text: as §1

Fusarium 2960C = assay: MIC determination (NCCLS broth method); format: cell-based; details: read-out: Minimum Inhibitory Concentration (MIC)
Source text: as §1

Penicillium H - 1048 [2] = assay: MIC determination (NCCLS broth method); format: cell-based; details: H1048, read-out: Minimum Inhibitory Concentration (MIC)
Source text: as §1

A flavus P3 - 1041 [3] = assay: MIC determination (NCCLS broth method); format: cell-based; details: read-out: Minimum Inhibitory Concentration (MIC)
Source text: as §1

C tropicalis 750 = assay: MIC determination (NCCLS broth method); format: cell-based; details: read-out: Minimum Inhibitory Concentration (MIC)
Source text: as §1

Penicillium 1641 [4] = assay: MIC determination (NCCLS broth method); format: cell-based; details: read-out: Minimum Inhibitory Concentration (MIC)
Source text: as §1

Penicillium 191 = assay: MFC determination (subculture on Sabouraud Dextrose Agar); format: cell-based; details: read-out: Minimum Fungicidal Concentration (MFC)
Source text: as §1

Fusarium 29600 = assay: as above; format: cell-based; details: Fusarium, 29600, read-out: Minimum Fungicidal Concentration (MFC)
Source text: as §1

A niger P1 - 1046 = assay: as above; format: cell-based; details: read-out: Minimum Fungicidal Concentration (MFC)
Source text: as §1

A flavus E4 - 1042 = assay: as above; format: cell-based; details: read-out: Minimum Fungicidal Concentration (MFC)
Source text: as §1

C krusei 6258 = assay: as above; format: cell-based; details: read-out: Minimum Fungicidal Concentration (MFC)
Source text: as §1

Mucor (Ceylon) = assay: as above; format: cell-based; details: read-out: Minimum Fungicidal Concentration (MFC)
Source text: as §1

Rhizopus (Ceylon) [5] = assay: as above; format: cell-based; details: read-out: Minimum Fungicidal Concentration (MFC)
Source text: as §1

Penicillium 2306 = assay: as above; format: cell-based; details: read-out: Minimum Fungicidal Concentration (MFC)
Source text: as §1

C parapsilosis 22019 = assay: as above; format: cell-based; details: read-out: Minimum Fungicidal Concentration (MFC)
Source text: as §1

A niger E5 - 1047 = assay: as above; format: cell-based; details: read-out: Minimum Fungicidal Concentration (MFC)
Source text: as §1

Fusarium (Ceylon) = assay: as above; format: cell-based; details: read-out: Minimum Fungicidal Concentration (MFC)
Source text: as §1

A flavus E3 - 1044 = assay: as above; format: cell-based; details: read-out: Minimum Fungicidal Concentration (MFC)
Source text: as §1

Alternaria 1051 = assay: as above; format: cell-based; details: read-out: Minimum Fungicidal Concentration (MFC)
Source text: as §1

Penicillium I - 1049 = assay: as above; format: cell-based; details: I1049, read-out: Minimum Fungicidal Concentration (MFC)
Source text: as §1

Rhizopus 1052 = assay: as above; format: cell-based; details: read-out: Minimum Fungicidal Concentration (MFC)
Source text: as §1

Fusarium 18270 = assay: as above; format: cell-based; details: Fusarium, 18270, read-out: Minimum Fungicidal Concentration (MFC)
Source text: as §1

Penicillium 2548 = assay: as above; format: cell-based; details: read-out: Minimum Fungicidal Concentration (MFC)
Source text: as §1

Penicillium 31620 = assay: as above; format: cell-based; details: read-out: Minimum Fungicidal Concentration (MFC)
Source text: as §1

A flavus P2 - 1045 = assay: as above; format: cell-based; details: read-out: Minimum Fungicidal Concentration (MFC)
Source text: as §1

Penicillium H - 1048 [6] = assay: as above; format: cell-based; details: H1048, read-out: Minimum Fungicidal Concentration (MFC)
Source text: as §1

A flavus P3 - 1041 [7] = assay: as above; format: cell-based; details: read-out: Minimum Fungicidal Concentration (MFC)
Source text: as §1

Penicillium 1641 [8] = assay: as above; format: cell-based; details: read-out: Minimum Fungicidal Concentration (MFC)
Source text: as §1

C albicans Y01.19 = assay: MIC determination (NCCLS broth method); format: cell-based, Candida albicans; details: Candida albicans, read-out: Minimum Inhibitory Concentration (MIC)
Source text: as §1

C albicans A-26 = assay: MIC determination (NCCLS broth method); format: cell-based, Candida albicans; details: Candida albicans, A26, read-out: Minimum Inhibitory Concentration (MIC)
Source text: as §1

A fumigatus K - 1033 = assay: MIC determination (NCCLS broth method); format: cell-based, Aspergillus fumigatus; details: Aspergillus fumigatus, K1033, read-out: Minimum Inhibitory Concentration (MIC)
Source text: as §1

A fumigatus PGI - 1023 = assay: MIC determination (NCCLS broth method); format: cell-based, Aspergillus fumigatus; details: Aspergillus fumigatus, PGI1023, read-out: Minimum Inhibitory Concentration (MIC)
Source text: as §1

A fumigatus L - 1034 = assay: MIC determination (NCCLS broth method); format: cell-based, Aspergillus fumigatus; details: Aspergillus fumigatus, L1034, read-out: Minimum Inhibitory Concentration (MIC)
Source text: as §1

A fumigatus SI-1 - 1019 [9] = assay: MIC determination (NCCLS broth method); format: cell-based, Aspergillus fumigatus; details: Aspergillus fumigatus, SI11019, read-out: Minimum Inhibitory Concentration (MIC)
Source text: as §1

A fumigatus J - 1032 = assay: MIC determination (NCCLS broth method); format: cell-based, Aspergillus fumigatus; details: Aspergillus fumigatus, J1032, read-out: Minimum Inhibitory Concentration (MIC)
Source text: as §1

A fumigatus II - 1012 = assay: MIC determination (NCCLS broth method); format: cell-based, Aspergillus fumigatus; details: Aspergillus fumigatus, II1012, read-out: Minimum Inhibitory Concentration (MIC)
Source text: as §1

A fumigatus I - 1011 = assay: MIC determination (NCCLS broth method); format: cell-based, Aspergillus fumigatus; details: Aspergillus fumigatus, I1011, read-out: Minimum Inhibitory Concentration (MIC)
Source text: as §1

A fumigatus 1008 [10] = assay: MIC determination (NCCLS broth method); format: cell-based, Aspergillus fumigatus; details: Aspergillus fumigatus, read-out: Minimum Inhibitory Concentration (MIC)
Source text: as §1

Penicilliuim 2306 = assay: MIC determination (NCCLS broth method); format: cell-based, Penicillium; details: Penicillium, read-out: Minimum Inhibitory Concentration (MIC)
Source text: as §1

P variotii 22319 = assay: MIC determination (NCCLS broth method); format: cell-based, Paecillomyces variotii; details: read-out: Minimum Inhibitory Concentration (MIC)
Source text: as §1

C neoformans I = assay: MIC determination (NCCLS broth method); format: cell-based, Cryptococcus neoformans; details: Cryptococcus neoformans, read-out: Minimum Inhibitory Concentration (MIC)
Source text: as §1

C neoformans M-106 = assay: MIC determination (NCCLS broth method); format: cell-based, Cryptococcus neoformans; details: Cryptococcus neoformans, M106, read-out: Minimum Inhibitory Concentration (MIC)
Source text: as §1

A fumigatus SI-1 - 1019 [11] = assay: MFC determination (subculture on Sabouraud Dextrose Agar); format: cell-based, Aspergillus fumigatus; details: Aspergillus fumigatus, SI11019, read-out: Minimum Fungicidal Concentration (MFC)
Source text: as §1

A fumigatus 1008 [12] = assay: as above; format: cell-based, Aspergillus fumigatus; details: Aspergillus fumigatus, read-out: Minimum Fungicidal Concentration (MFC)
Source text: as §1

SMILES: CCC(C)n1ncn(-c2ccc(N3CCN(c4ccc(OCC5COC(Cn6cncn6)(c6ccc(Cl)cc6Cl)O5)cc4)CC3)cc2)c1=O (stereo not drawn) [Itraconazole]
- MIC (Rhizopus (Ceylon) [1]): 64 µg/mL (≈ 90.7 µM)
- MIC (C krusei 766.1): 0.5 µg/mL (≈ 0.709 µM)
- MIC (Fusarium 2960C): 16 µg/mL (≈ 22.7 µM)
- MIC (Penicillium H - 1048 [2]): 16 µg/mL (≈ 22.7 µM)
- MIC (A flavus P3 - 1041 [3]): 0.06 µg/mL (≈ 0.085 µM)
- MIC (C tropicalis 750): 0.016 µg/mL (≈ 0.0227 µM)
- MIC (Penicillium 1641 [4]): 0.25 µg/mL (≈ 0.354 µM)
- MFC (Penicillium 191): 0.06 µg/mL (≈ 0.085 µM)
- MFC (Fusarium 29600): > 128 µg/mL
- MFC (A niger P1 - 1046): 0.25 µg/mL (≈ 0.354 µM)
- MFC (A flavus E4 - 1042): 0.125 µg/mL (≈ 0.177 µM)
- MFC (C krusei 6258): 64 µg/mL (≈ 90.7 µM)
- MFC (Mucor (Ceylon)): > 128 µg/mL
- MFC (Rhizopus (Ceylon) [5]): 128 µg/mL (≈ 181 µM)
- MFC (Penicillium 2306): 16 µg/mL (≈ 22.7 µM)
- MFC (C parapsilosis 22019): 8 µg/mL (≈ 11.3 µM)
- MFC (A niger E5 - 1047): 0.125 µg/mL (≈ 0.177 µM)
- MFC (Fusarium (Ceylon)): > 128 µg/mL
- MFC (A flavus E3 - 1044): 0.03 µg/mL (≈ 0.0425 µM)
- MFC (Alternaria 1051): 32 µg/mL (≈ 45.3 µM)
- MFC (Penicillium I - 1049): > 128 µg/mL
- MFC (Rhizopus 1052): 8 µg/mL (≈ 11.3 µM)
- MFC (Fusarium 18270): 128 µg/mL (≈ 181 µM)
- MFC (Penicillium 2548): 0.06 µg/mL (≈ 0.085 µM)
- MFC (Penicillium 31620): 1 µg/mL (≈ 1.42 µM)
- MFC (A flavus P2 - 1045): 0.25 µg/mL (≈ 0.354 µM)
- MFC (Penicillium H - 1048 [6]): > 128 µg/mL
- MFC (A flavus P3 - 1041 [7]): 0.06 µg/mL (≈ 0.085 µM)
- MFC (Penicillium 1641 [8]): 0.06 µg/mL (≈ 0.085 µM)
- MIC (C albicans Y01.19): 0.25 µg/mL (≈ 0.354 µM)
- MIC (C albicans A-26): 0.016 µg/mL (≈ 0.0227 µM)
- MIC (A fumigatus K - 1033): 0.06 µg/mL (≈ 0.085 µM)
- MIC (A fumigatus PGI - 1023): 0.03 µg/mL (≈ 0.0425 µM)
- MIC (A fumigatus L - 1034): 0.06 µg/mL (≈ 0.085 µM)
- MIC (A fumigatus SI-1 - 1019 [9]): 0.03 µg/mL (≈ 0.0425 µM)
- MIC (A fumigatus J - 1032): 0.03 µg/mL (≈ 0.0425 µM)
- MIC (A fumigatus II - 1012): 0.06 µg/mL (≈ 0.085 µM)
- MIC (A fumigatus I - 1011): 0.06 µg/mL (≈ 0.085 µM)
- MIC (A fumigatus 1008 [10]): 0.06 µg/mL (≈ 0.085 µM)
- MIC (Penicilliuim 2306): 0.125 µg/mL (≈ 0.177 µM)
- MIC (P variotii 22319): 0.016 µg/mL (≈ 0.0227 µM)
- MIC (C neoformans I): 0.03 µg/mL (≈ 0.0425 µM)
- MIC (C neoformans M-106): 0.03 µg/mL (≈ 0.0425 µM)
- MFC (A fumigatus SI-1 - 1019 [11]): 0.25 µg/mL (≈ 0.354 µM)
- MFC (A fumigatus 1008 [12]): 0.06 µg/mL (≈ 0.085 µM)

Reference: patent publication US6710049B2, “Azole compounds as anti-fungal agents” (Ranbaxy Laboratories Limited, priority 2000, dated 2004)
